Compound: CN1CCN(c2cc3c(cc2F)c(=O)c(C(=O)O)cn3-c2ccc(F)cc2)CC1
- solubility (mole fraction) (in acetone, 293.15 K): 0.0052
- solubility (mole fraction) (in acetone, 295.15 K): 0.0058
- solubility (mole fraction) (in acetone, 298.15 K): 0.0067
- solubility (mole fraction) (in acetone, 300.15 K): 0.0073
- solubility (mole fraction) (in acetone, 303.15 K): 0.0081
- solubility (mole fraction) (in acetone, 305.15 K): 0.0087
- solubility (mole fraction) (in acetone, 308.15 K): 0.0096
- solubility (mole fraction) (in acetone, 310.15 K): 0.0104
- solubility (mole fraction) (in acetone, 313.15 K): 0.011
- solubility (mole fraction) (in ethanol, 293.15 K): 0.0387
- solubility (mole fraction) (in ethanol, 295.15 K): 0.0435
- solubility (mole fraction) (in ethanol, 298.15 K): 0.0507
- solubility (mole fraction) (in ethanol, 300.15 K): 0.0559
- solubility (mole fraction) (in ethanol, 303.15 K): 0.0636
- solubility (mole fraction) (in ethanol, 305.15 K): 0.0683
- solubility (mole fraction) (in ethanol, 308.15 K): 0.0754
- solubility (mole fraction) (in ethanol, 310.15 K): 0.0795
- solubility (mole fraction) (in ethanol, 313.15 K): 0.0856
- solubility (mole fraction) (in methanol, 293.15 K): 0.0064
- solubility (mole fraction) (in methanol, 295.15 K): 0.0068
- solubility (mole fraction) (in methanol, 298.15 K): 0.0073
- solubility (mole fraction) (in methanol, 300.15 K): 0.0077
- solubility (mole fraction) (in methanol, 303.15 K): 0.0084
- solubility (mole fraction) (in methanol, 305.15 K): 0.0088
- solubility (mole fraction) (in methanol, 308.15 K): 0.0095
- solubility (mole fraction) (in methanol, 310.15 K): 0.0099
- solubility (mole fraction) (in methanol, 313.15 K): 0.0104
